≈ marks a conversion by molar mass, not a printed value. Like-named read-outs stand apart in the source and are kept apart here. Positions of bridges follow the written chain, without caps; N, C: chain ends. Non-standard residues stand in square brackets, D forms with d. Residues, ends and D or L forms follow the SMILES beside them. *: point of attachment. Decanoyl(3R-OH) = CCCCCCC[C@@H](O)CC(=O)*; Igl = N[C@H](C(=O)O)C1Cc2ccccc2C1; dDab = NCC[C@@H](N)C(=O)O; dDap = NC[C@@H](N)C(=O)O; Dab = NCC[C@H](N)C(=O)O
Key:
in vitro [1] = settings: human
In short: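 HK2 cells were seeded at 2000 per well in DMEM/F12 with 10% FBS and left to attach for 24 h at 37 °C, 5% CO2. They were then exposed for 24 h to 3-fold peptide dilutions starting from 600 μM solutions in quadruplicate. LDH release was read at 450 nm, and CC50 was fitted from dose-response curves.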

A. baumannii ATCC 19606 = settings: ATCC 19606
In short: (§1)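 Mid-log cultures grown in Mueller Hinton broth at 37° C were tested by 2-fold broth microdilution at 5×10^5 CFU/mL final. Compounds were dissolved in water and tested over a final range of 32 to 0.015 μg/mL.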

K. pneumoniae ATCC 13883 = settings: ATCC 13883
In short: as §1

P. aeruginosa ATCC 27853 = settings: ATCC 27853
In short: as §1

[2] = system: P. aeruginosa GN_043, PmxR
In short: as §1

[3] = system: K. pneumoniae ATCC BAA-2146, NDM-1 pos; settings: ATCC BAA-2146
In short: as §1

[4] = system: K. pneumoniae GN_102 PmxR; settings: GN 102 PmxR
In short: as §1

[5] = system: P. aeruginosa GN_105, PmxR; settings: GN 105, PmxR
In short: as §1

A. baumannii GN_093 PmxR = settings: GN 093 PmxR
In short: as §1

E. coli ATCC 25922 = settings: ATCC 25922
In short: as §1

[6] = system: K. pneumoniae ATCC 700603, MDR; settings: ATCC 700603
In short: as §1

[7] = system: K. pneumoniae GN_106, PmxR; settings: GN 106, PmxR
In short: as §1

[8] = system: S. aureus ATCC 25923, MSSA; settings: ATCC 25923
In short: as §1

Neisseria gonorrhoeae = assay: MIC determination, Neisseria gonorrhoeae; assay type: cell-based; settings: for MIC N. gonorrhoeae FA19 ATCC BAA-1838: strain FA19 ATCC BAA-1838
Experimental: Bacteria were either obtained from American Type Culture Collection (ATCC; Manassas, Va., USA) or independent academic clinical isolate collections, as listed in Table 18 below. Bacteria were cultured in Nutrient broth (NB; Bacto Laboratories, catalogue No. 234000) or Mueller Hinton broth (MHB; Bacto Laboratories, catalogue No. 211443) at 37° C. overnight with shaking (˜180 RPM). A sample of each culture was then diluted 50-fold in fresh MHB and incubated at 37° C. for 2-3 h with shaking (˜180 RPM). Compound stock solutions were prepared as 0.64 mg/mL or 2.56 mg/mL in water. The compounds, at twice the final desired concentration, were serially diluted 2-fold across the wells of 96-well plates (Polystyrene, Corning, catalogue No. 3370). Mid-log phase bacterial cultures (after 2-3 h incubation) were diluted to a final concentration of 1×10^6 colony forming units (CFU)/mL, and 50 μL was added to each well giving a final cell density of 5×10^5 and a compound concentration range of 32 μg/mL to 0.015 μg/mL (128-0.06 μg/mL against P. aeruginosa PA9704).

in vitro [9] = settings: human; remark: listed apart in the source
In short: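 Cells (4000/well, pre-attached 24 h) then received 5 μM resazurin for 2 h, with fluorescence measured at ex 560/em 590.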

With `CCCCCCC[C@@H](O)CC(=O)N[C@H](CCN)C(=O)N[C@H]1CCNC(=O)[C@H]([C@@H](C)O)NC(=O)[C@H](CCN)NC(=O)[C@H](CCN)NC(=O)[C@H](CC(C)C)NC(=O)[C@@H](Cc2ccccc2)NC(=O)[C@H](CCNC(=O)[C@@H](N)CCCNC(=N)N)NC1=O` [compound 6657, 3(R)OH-nC9CO-D-Dab-cyc[L-Dab-L-Dab(L-Arg)-D-Phe-L-Leu-L-Dab-L-Dab-L-Thr]] ({Decanoyl(3R-OH)}-[dDab][Dab][Dab](Arg)[dF]L[Dab][Dab]T; lactam 2-C) the CC50 at 24 h (in vitro [1]) was over 300 µM, the “MIC A. baumannii ATCC 19606” value (A. baumannii ATCC 19606) was over 32 µg/mL and the “MIC K. pneumoniae ATCC 13883” value (K. pneumoniae ATCC 13883) was over 32 µg/mL. The “MIC P. aeruginosa ATCC 27853” value (P. aeruginosa ATCC 27853) was 16 µg/mL (≈ 13.5 µM), the “MIC P. aeruginosa GN_043, PmxR” value ([2]; P. aeruginosa GN_043, PmxR) was over 32 µg/mL and the “MIC K. pneumoniae ATCC BAA-2146, NDM-1 pos” value [3] was over 32 µg/mL. The “MIC K. pneumoniae GN_102 PmxR” value [4] was over 32 µg/mL, the “MIC P. aeruginosa GN_105, PmxR” value [5] was over 32 µg/mL and the “MIC A. baumannii GN_093 PmxR” value (A. baumannii GN_093 PmxR) was over 32 µg/mL. For the same compound, the “MIC E. coli ATCC 25922” value (E. coli ATCC 25922) was over 32 µg/mL, the “MIC K. pneumoniae ATCC 700603, MDR” value [6] was over 32 µg/mL and the “MIC K. pneumoniae GN_106, PmxR” value [7] was over 32 µg/mL. For the same compound, the “MIC S. aureus ATCC 25923, MSSA” value [8] was over 32 µg/mL.

In the case of `CCCCCCC[C@@H](O)CC(=O)N[C@H](CCN)C(=O)N[C@H]1CCNC(=O)[C@H](Cc2c[nH]c3ccccc23)NC(=O)[C@H](CCN)NC(=O)[C@H](CCN)NC(=O)[C@H](C2Cc3ccccc3C2)NC(=O)[C@@H](Cc2ccccc2)NC(=O)[C@H](CCN)NC1=O` [compound 8103, 3(R)OH-nC9CO-D-Dab-cyc[L-Dab-L-Dab-L-Dab-D-Phe-L-indanylgly-L-Dab-L-Dab-L-Trp]] ({Decanoyl(3R-OH)}-[dDab][Dab][Dab][dF][Igl][Dab][Dab]W; lactam 2-C), the “MIC N. gonorrhoeae FA19 ATCC BAA-1838” value (Neisseria gonorrhoeae) is reported as 0.2 µg/mL (≈ 0.17 µM), the “MIC A. baumannii ATCC 19606” value (A. baumannii ATCC 19606) is reported as 4 µg/mL (≈ 3.4 µM) and the “MIC K. pneumoniae ATCC 13883” value (K. pneumoniae ATCC 13883) is reported as 4 µg/mL (≈ 3.4 µM). The “MIC P. aeruginosa ATCC 27853” value (P. aeruginosa ATCC 27853) was 4 µg/mL (≈ 3.4 µM), the “MIC P. aeruginosa GN_043, PmxR” value ([2]; polymyxin-resistant) was 2 µg/mL (≈ 1.7 µM) and the “MIC K. pneumoniae ATCC BAA-2146, NDM-1 pos” value [3] was 4 µg/mL (≈ 3.4 µM). For the same compound, the “MIC K. pneumoniae GN_102 PmxR” value [4] was 4 µg/mL (≈ 3.4 µM), the “MIC P. aeruginosa GN_105, PmxR” value [5] was 2 µg/mL (≈ 1.7 µM) and the “MIC A. baumannii GN_093 PmxR” value (A. baumannii GN_093 PmxR) was 4 µg/mL (≈ 3.4 µM). For the same compound, the “MIC E. coli ATCC 25922” value (E. coli ATCC 25922) was 2 µg/mL (≈ 1.7 µM), the “MIC K. pneumoniae ATCC 700603, MDR” value [6] was 2 µg/mL (≈ 1.7 µM) and the “MIC K. pneumoniae GN_106, PmxR” value [7] was 4 µg/mL (≈ 3.4 µM). For the same compound, the “MIC S. aureus ATCC 25923, MSSA” value [8] was 2 µg/mL (≈ 1.7 µM).

For `CCCCCCC[C@@H](O)CC(=O)N[C@H](CN)C(=O)N[C@H]1CCNC(=O)[C@H](Cc2c[nH]c3ccccc23)NC(=O)[C@H](CCN)NC(=O)[C@H](CCN)NC(=O)[C@H](CC(C)C)NC(=O)[C@@H](Cc2ccccc2)NC(=O)[C@H](CCN)NC1=O` [compound 8886, 3(R)OH-nC9CO-D-Dap-cyc[L-Dab-L-Dab-D-Phe-L-Leu-L-Dab-L-Dab-L-Trp]] ({Decanoyl(3R-OH)}-[dDap][Dab][Dab][dF]L[Dab][Dab]W; lactam 2-C), the “MIC N. gonorrhoeae F89” value (Neisseria gonorrhoeae; strain F89) was 1.04 µg/mL (≈ 0.943 µM), the “MIC N. gonorrhoeae FA19 ATCC BAA-1838” value (Neisseria gonorrhoeae) was 0.39 µg/mL (≈ 0.353 µM) and the “MIC N. gonorrhoeae FA1090 A25 ATCC 700825” value (Neisseria gonorrhoeae; strain FA1090 A25 ATCC 700825) was 0.91 µg/mL (≈ 0.825 µM). For the same compound, the “MIC N. gonorrhoeae H041” value (Neisseria gonorrhoeae; strain H041) was 1.04 µg/mL (≈ 0.943 µM), the “MIC A. baumannii ATCC 19606” value (A. baumannii ATCC 19606) was 8 µg/mL (≈ 7.25 µM) and the “MIC K. pneumoniae ATCC 13883” value (K. pneumoniae ATCC 13883) was 4 µg/mL (≈ 3.63 µM). The “MIC P. aeruginosa ATCC 27853” value (P. aeruginosa ATCC 27853) was 2 µg/mL (≈ 1.81 µM), the “MIC P. aeruginosa GN_043, PmxR” value ([2]; polymyxin-resistant) was 2 µg/mL (≈ 1.81 µM) and the “MIC K. pneumoniae ATCC BAA-2146, NDM-1 pos” value [3] was 4 µg/mL (≈ 3.63 µM). The “MIC K. pneumoniae GN_102 PmxR” value [4] was 4 µg/mL (≈ 3.63 µM), the “MIC P. aeruginosa GN_105, PmxR” value [5] was 1 µg/mL (≈ 0.906 µM) and the “MIC A. baumannii GN_093 PmxR” value (A. baumannii GN_093 PmxR) was 8 µg/mL (≈ 7.25 µM). The “MIC E. coli ATCC 25922” value (E. coli ATCC 25922) was 2 µg/mL (≈ 1.81 µM), the “MIC K. pneumoniae ATCC 700603, MDR” value [6] was 4 µg/mL (≈ 3.63 µM) and the “MIC K. pneumoniae GN_106, PmxR” value [7] was 4 µg/mL (≈ 3.63 µM). The “MIC S. aureus ATCC 25923, MSSA” value [8] was 4 µg/mL (≈ 3.63 µM) and the CC50 at 24 h (in vitro [9]) was 95 µM.
